Counter-ions that a name gives are not always drawn. Like-named read-outs stand apart in the source and are kept apart here.
How the values were obtained:
[1] = molecular target: full-length tau (T40) / 12 kD PHF-core tau fragment in fibroblast cells (3T6) (Homo sapiens, UniProt P10636); assay: cell-based; assay type: cell-based
[2] = molecular target: tau-tau binding: truncated tau (residues 297-390; dGA) and full-length tau (T40) (Homo sapiens, UniProt P10636); details: for IC50: read-out: B50
[3] = system: viruses such as HIV and West Nile Virus; details: MTC under the name Virostat, from Bioenvision Inc.; cited from earlier work
[4] = system: fibroblast cells (3T6); parameters: unit not given beside the values

Sequence of full-length tau (T40) / 12 kD PHF-core tau fragment in fibroblast cells (3T6) (P10636 612-707): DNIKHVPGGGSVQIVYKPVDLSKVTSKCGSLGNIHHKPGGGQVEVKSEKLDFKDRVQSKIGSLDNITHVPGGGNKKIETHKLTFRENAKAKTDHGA
Sequence of tau-tau binding: truncated tau (residues 297-390; dGA) and full-length tau (T40) (P10636 614-707): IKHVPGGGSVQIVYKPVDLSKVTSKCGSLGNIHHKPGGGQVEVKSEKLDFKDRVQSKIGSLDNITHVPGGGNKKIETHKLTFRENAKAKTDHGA

Row | B50 [2] | Compound | EC50 [1] | viricidal activity in vitro [3] | LD50 [4] | IC50 [2] | IC50 ([2]; concentration of compound required to inhibit the tau-tau binding by 50%, […])
1 | 145.4 ± 5.7 (5) | CCN(CC)c1ccc2nc3ccc(N(CC)CC)cc3[s+]c2c1 [ETZ, Ethylthioninium Chloride (ETC) Zinc Chloride (Double Salt)] | 60 nM |  |  |  | 
2 |  | CN(C)c1ccc2nc3ccc(N(C)C)cc3[s+]c2c1 [MTC, Methythioninium Chloride] |  | potent viricidal activity |  |  | 
3 |  | 1,9-Diethyl Ethylthioninium chloride [DEETC] | 0.6 nM |  | 1.6 ± 0.4 (13) | 3700 nM | 
4 |  | Ethylthioninium Chloride [ETC] | 70 nM |  | 32.0 ± 4.0 (26) | 49000 nM | 
5 |  | Ethyl-thioninium iodide [ETI] | 60 nM |  |  |  | > 500000 nM

Reference: patent publication US7737138B2 (priority 2004, dated 2010)
